Test results taken from patent US8158628B2, “Sulfonylated 1,2,3,4-tetrahydropyrrolo[1,2-a]pyrazine compounds and their use as pharmaceuticals” (Gruenenthal GmbH, priority 2009, dated 2012).

Target: T1, B1R of the rat (Rattus norvegicus, UniProt P97583)
T1 construct: expressed in transfected cells; host or cells: CHO K1 cells (Chinese hamster ovary), stably transfected
T1 sequence (P97583 1-337): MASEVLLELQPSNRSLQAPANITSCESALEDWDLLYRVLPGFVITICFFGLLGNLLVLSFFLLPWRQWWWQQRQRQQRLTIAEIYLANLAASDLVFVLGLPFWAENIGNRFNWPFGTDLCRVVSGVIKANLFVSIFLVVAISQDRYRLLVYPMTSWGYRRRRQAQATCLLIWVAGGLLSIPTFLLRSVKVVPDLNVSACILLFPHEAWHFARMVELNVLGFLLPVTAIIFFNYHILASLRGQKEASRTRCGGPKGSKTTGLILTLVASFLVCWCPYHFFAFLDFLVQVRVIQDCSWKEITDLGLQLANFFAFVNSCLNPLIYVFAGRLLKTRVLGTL
Test: FLIPR Ca2+ functional assay, B1R antagonism, rat B1R in CHO K1 cells
Format: cell-based
Conditions: test substance 10 μM; rB1R CHO K1 cells; agonist Des-Arg9 bradykinin at EC80; % of maximum achievable inhibition
Method: The agonistic or antagonistic action of substances on the bradykinin 1 receptor (B1R) of the human and rat species can be quantified with ectopically expressing cell lines (CHO K1 cells) and with the aid of a Ca^2+-sensitive dye (Fluo-4) using a fluorescent imaging plate reader (FLIPR). The value in % activation is based on the Ca^2+ signal after addition of Lys-Des-Arg^9 bradykinin (0.5 nM) or Des-Arg^9 bradykinin (100 nM). Antagonists lead to a suppression of the Ca^2+ influx following administration of the agonist. The % inhibition in comparison with the maximum achievable inhibition is indicated.
1. Functional Investigation on the Bradykinin 1 Receptor (B1R) The agonistic or antagonistic action of substances can be determined on the bradykinin 1 receptor (B1R) of the human and rat species with the following assay. According to this assay, the Ca^2+ inflow through the channel is quantified with the aid of a Ca^2+-sensitive dye (Fluo-4 type, Molecular Probes Europe BV, Leiden, Netherlands) in a fluorescent imaging plate reader (FLIPR, Molecular Devices, Sunnyvale, USA). 2. Method: Chinese hamster ovary cells (CHO K1 cells) which are stably transfected with the human B1R gene (hB1R cells) or the B1R gene of the rat (rB1R cells) are used. For functional investigations these cells are plated-out onto black 96-well plates with a clear base (BD Biosciences, Heidelberg, Germany or Greiner, Frickenhausen, Germany) in a density of 20,000-35,000 cells/well. Overnight the cells are incubated at 37° C. and 5% CO2 in culture medium (hB1R cells: Ham's Nutrient Mixture F12, Gibco Invitrogen GmbH, Karlsruhe, Germany or DMEM, Sigma-Aldrich, Taufkirchen, Germany; rB1R cells: D-MEM/F12, Gibco Invitrogen, Karlsruhe, Germany) with 10 vol. % FBS (foetal bovine serum, Gibco Invitrogen GmbH, Karlsruhe, Germany or PAN Biotech GmbH, Aidenbach, Germany).
On the following day the cells are loaded with 2.13 μM Fluo-4 (Molecular Probes Europe BV, Leiden, Netherlands) in HBSS buffer (Hank's buffered saline solution, Gibco Invitrogen GmbH, Karlsruhe, Germany) with 2.5 mM probenecid (Sigma-Aldrich, Taufkirchen, Germany) and 10 mM HEPES (Sigma-Aldrich, Taufkirchen, Germany) for 60 min at 37° C. The plates are subsequently washed twice with HBSS buffer, and HBSS buffer which additionally contains 0.1% BSA (bovine serum albumin; Sigma-Aldrich, Taufkirchen, Germany), 5.6 mM glucose and 0.05% gelatine (Merck KGaA, Darmstadt, Germany) is added. After a further incubation of 20 minutes at RT, the plates are inserted into the FLIPR for Ca^2+ measurement. Alternatively they are washed with buffer A (15 mM HEPES, 80 mM NaCl, 5 mM KCl, 1.2 mM CaCl2, 0.7 mM MgSO4, 2 g/l glucose, 2.5 mM probenecid) and loaded with buffer A with added 2.5 μM Fluo-4 and 0.025% Pluronic F127 (Sigma-Aldrich, Taufkirchen, Germany). The cells are then washed twice with buffer A and incubated for 30 minutes with buffer A, which additionally contains 0.05% BSA and 0.05% gelatine, at RT and then used for Ca^2+ measurement in the FLIPR. The Ca^2+-dependent fluorescence is measured here before and after addition of substances (λex=488 nm, λem=540 nm). The quantification is performed by measuring the highest fluorescence intensity (FC, fluorescence counts) over time.
The FLIPR protocol comprises two additions of substance. Test substances (10 μM) are first pipetted onto the cells and the Ca^2+ inflow is compared with the control (hB1R: Lys-Des-Arg^9 bradykinin >=50 nM; rB1R: Des-Arg^9 bradykinin 10 μM). The value in % activation based on the Ca^2+ signal after addition of Lys-Des-Arg^9 bradykinin (>=50 nM) or Des-Arg^9 bradykinin (10 μM) is obtained therefrom. After incubation for 10-20 minutes, Lys-Des-Arg^9 bradykinin (hB1R) or Des-Arg^9 bradykinin (rB1R) is applied in the EC80 concentration and the inflow of Ca^2+ is likewise determined.
Antagonists lead to a suppression of the Ca^2+ inflow. The % inhibition in comparison with the maximum achievable inhibition is calculated. […]

Going from O=C(CC1c2cccn2CCN1S(=O)(=O)c1cccc(C(F)(F)F)c1)N1CCN(c2ccccn2)CC1 (stereo not shown) [Example 190, 1-(4-Pyridin-2-yl-piperazin-1-yl)-2-[2-[[3-(trifluoromethyl)phenyl]sulfonyl]-1,2,3,4-tetrahydro-pyrrolo[1,2-a]pyrazin-1-yl]-ethanone] to N#Cc1cccnc1N1CCN(C(=O)CC2c3cccn3CCN2S(=O)(=O)c2cccc(C(F)(F)F)c2)CC1 (stereo not shown) [Example 269, 2-[4-[2-[2-[[3-(Trifluoromethyl)phenyl]sulfonyl]-1,2,3,4-tetrahydro-pyrrolo[1,2-a]pyrazin-1-yl]-acetyl]-piperazin-1-yl]-pyridine-3-carbonitrile], the inhibition at 10 µM falls from 20.4% to 1.05%.

Compared with COc1cc(C)c(S(=O)(=O)N2CCn3cccc3C2CC(=O)N2CCN(Cc3ccc4c(c3)OCO4)CC2)c(C)c1 (stereo not shown) [Example 246, 1-[4-(1,3-Benzodioxol-5-yl-methyl)-piperazin-1-yl]-2-[2-[(4-methoxy-2,6-dimethyl-phenyl)sulfonyl]-1,2,3,4-tetrahydro-pyrrolo[1,2-a]pyrazin-1-yl]-ethanone], COc1cc(C)c(S(=O)(=O)N2CCn3cccc3C2CC(=O)N2CCN(Cc3ccc(Cl)cc3)CC2)c(C)c1 (stereo not shown) [Example 240, 1-[4-[(4-Chlorophenyl)-methyl]-piperazin-1-yl]-2-[2-[(4-methoxy-2,6-dimethyl-phenyl)sulfonyl]-1,2,3,4-tetrahydro-pyrrolo[1,2-a]pyrazin-1-yl]-ethanone] is higher in inhibition at 10 µM: 6.85% for the first, 55.9% for the second.

Compared with CCN1CCN(C(=O)CC2c3cccn3CCN2S(=O)(=O)c2ccccc2)CC1 (stereo not shown) [Example 173, 2-[2-(Benzenesulfonyl)-1,2,3,4-tetrahydro-pyrrolo[1,2-a]pyrazin-1-yl]-1-(4-ethyl-piperazin-1-yl)-ethanone], Cc1ccc(CN2CCN(C(=O)CC3c4cccn4CCN3S(=O)(=O)c3ccccc3)CC2)cc1 (stereo not shown) [Example 232, 2-[2-(Benzenesulfonyl)-1,2,3,4-tetrahydro-pyrrolo[1,2-a]pyrazin-1-yl]-1-[4-(p-tolyl-methyl)-piperazin-1-yl]-ethanone] is lower in inhibition at 10 µM: 9.74% for the first, 2.94% for the second.

Compared with Cc1cccc(Cl)c1S(=O)(=O)N1CCn2cccc2C1CC(=O)N1CCN(Cc2ccc(Cl)cc2)CC1 (stereo not shown) [Example 249, 2-[2-[(2-Chloro-6-methyl-phenyl)sulfonyl]-1,2,3,4-tetrahydro-pyrrolo[1,2-a]pyrazin-1-yl]-1-[4-[(4-chlorophenyl)-methyl]-piperazin-1-yl]-ethanone], O=C(CC1c2cccn2CCN1S(=O)(=O)c1ccccc1)N1CCN(Cc2ccc(Cl)c(Cl)c2)CC1 (stereo not shown) [Example 266, 2-[2-(Benzenesulfonyl)-1,2,3,4-tetrahydro-pyrrolo[1,2-a]pyrazin-1-yl]-1-[4-[(3,4-dichlorophenyl)-methyl]-piperazin-1-yl]-ethanone] is higher in inhibition at 10 µM: -12.6% for the first, -3.52% for the second.

Going from COc1cc(C)c(S(=O)(=O)N2CCn3cccc3C2CC(=O)N2CCCCC2Cc2ccncc2)c(C)c1 (stereo not shown) [Example 245, 2-[2-[(4-Methoxy-2,6-dimethyl-phenyl)sulfonyl]-1,2,3,4-tetrahydro-pyrrolo[1,2-a]pyrazin-1-yl]-1-[2-(pyridin-4-yl-methyl)-piperidin-1-yl]-ethanone] to COc1cc(C)c(S(=O)(=O)N2CCn3cccc3C2CC(=O)N2CCCCC2Cc2ccccn2)c(C)c1 (stereo not shown) [Example 244, 2-[2-[(4-Methoxy-2,6-dimethyl-phenyl)sulfonyl]-1,2,3,4-tetrahydro-pyrrolo[1,2-a]pyrazin-1-yl]-1-[2-(pyridin-2-yl-methyl)-piperidin-1-yl]-ethanone], the inhibition at 10 µM falls from -21.5% to -37.6%.

Going from COc1cc(C)c(S(=O)(=O)N2CCn3cccc3C2CC(=O)NCCCN2C(C)CCCC2C)c(C)c1 (stereo not shown) [Example 143, N-[3-(2,6-Dimethyl-piperidin-1-yl)-propyl]-2-[2-[(4-methoxy-2,6-dimethyl-phenyl)sulfonyl]-1,2,3,4-tetrahydro-pyrrolo[1,2-a]pyrazin-1-yl]-acetamide] to COc1cc(C)c(S(=O)(=O)N2CCn3cccc3C2CC(=O)N2CCC(Cc3ccccc3)CC2)c(C)c1 (stereo not shown) [Example 257, 1-(4-Benzyl-piperidin-1-yl)-2-[2-[(4-methoxy-2,6-dimethyl-phenyl)sulfonyl]-1,2,3,4-tetrahydro-pyrrolo[1,2-a]pyrazin-1-yl]-ethanone], the inhibition at 10 µM rises from 37.4% to 75.5%.

First: O=C(CC1c2cccn2CCN1S(=O)(=O)c1ccccc1)N1CCN(c2ccccc2F)CC1 (stereo not shown) [Example 172, 2-[2-(Benzenesulfonyl)-1,2,3,4-tetrahydro-pyrrolo[1,2-a]pyrazin-1-yl]-1-[4-(2-fluorophenyl)-piperazin-1-yl]-ethanone]
Second: O=C(CC1c2cccn2CCN1S(=O)(=O)c1ccccc1)N1CCC(N2CCCC2)CC1 (stereo not shown) [Example 175, 2-[2-(Benzenesulfonyl)-1,2,3,4-tetrahydro-pyrrolo[1,2-a]pyrazin-1-yl]-1-(4-pyrrolidin-1-yl-piperidin-1-yl)-ethanone]
The inhibition at 10 µM of the first is higher: 14.1% for the first, 9.54% for the second.

Compared with Cc1cccc(Cl)c1S(=O)(=O)N1CCn2cccc2C1CC(=O)NCCCN1CCOCC1 (stereo not shown) [Example 154, 2-[2-[(2-Chloro-6-methyl-phenyl)sulfonyl]-1,2,3,4-tetrahydro-pyrrolo[1,2-a]pyrazin-1-yl]-N-(3-morpholin-4-yl-propyl)-acetamide], Cc1cccc(Cl)c1S(=O)(=O)N1CCn2cccc2C1CC(=O)N1CCN(c2ncc(C(F)(F)F)cc2Cl)CC1 (stereo not shown) [Example 262, 2-[2-[(2-Chloro-6-methyl-phenyl)sulfonyl]-1,2,3,4-tetrahydro-pyrrolo[1,2-a]pyrazin-1-yl]-1-[4-[3-chloro-5-(trifluoromethyl)-pyridin-2-yl]-piperazin-1-yl]-ethanone] is lower in inhibition at 10 µM: 41.9% for the first, -12.5% for the second.

Going from COc1cc(C)c(S(=O)(=O)N2CCn3cccc3C2CC(=O)N2CCC(O)(c3cccnc3)CC2)c(C)c1 (stereo not shown) [Example 141, 1-(4-Hydroxy-4-pyridin-3-yl-piperidin-1-yl)-2-[2-[(4-methoxy-2,6-dimethyl-phenyl)sulfonyl]-1,2,3,4-tetrahydro-pyrrolo[1,2-a]pyrazin-1-yl]ethanone] to COc1cc(C)c(S(=O)(=O)N2CCn3cccc3C2CC(=O)N2CCN(Cc3ccccc3F)CC2)c(C)c1 (stereo not shown) [Example 243, 1-[4-[(2-Fluorophenyl)-methyl]-piperazin-1-yl]-2-[2-[(4-methoxy-2,6-dimethyl-phenyl)sulfonyl]-1,2,3,4-tetrahydro-pyrrolo[1,2-a]pyrazin-1-yl]-ethanone], the inhibition at 10 µM falls from 37.8% to 29.4%.

For COc1cc(C)c(S(=O)(=O)N2CCn3cccc3C2CC(=O)N2CCCCCC2c2ccc(N(C)C)cc2)c(C)c1 (stereo not shown) [Example 255, 1-[2-(4-Dimethylaminophenyl)-azepan-1-yl]-2-[2-[(4-methoxy-2,6-dimethyl-phenyl)sulfonyl]-1,2,3,4-tetrahydro-pyrrolo[1,2-a]pyrazin-1-yl]-ethanone], the inhibition at 10 µM was -7.23%.
